In the NIST ThermoML archive (doi:10.1016/j.jct.2015.02.020):
Numbers after ± are expanded uncertainties.

What was measured:
[1] = refractive index (Na D-line) (dimensionless); xn = mol fraction of the nth substance listed; details: 101.3 kPa, Liquid, Standard Abbe refractometry
[2] = xn = mol fraction of the nth substance listed; details: 101.3 kPa, Liquid; for viscosity: Falling or rolling sphere viscometry; for speed of sound: Sing-around technique in a fixed-path interferometer; for mass density: Vibrating tube method

CC[n+]1ccc(C)cc1.O=S(=O)([N-]S(=O)(=O)C(F)(F)F)C(F)(F)F + O
Details	mass density, [2] [kg/m3]	refractive index, [1]	speed of sound, [2] [m/s]	viscosity, [2] [mPa·s]
298.15 K, x2 = 0.144	1479.48 ± 0.82	1.44235 ± 0.00039	1266.8 ± 1.5	24.89 ± 0.71
298.15 K, x2 = 0.201	1476.6 ± 0.88	1.44165 ± 0.00039	1268.3 ± 1.5	22.72 ± 0.64
298.15 K, x2 = 0.306	1469.91 ± 0.89	1.44005 ± 0.00039	1271.7 ± 1.4	19.35 ± 0.57
303.15 K, x2 = 0.144	1474.53 ± 0.82	1.44089 ± 0.00039	1255.4 ± 1.5	21.05 ± 0.63
303.15 K, x2 = 0.201	1471.63 ± 0.89	1.44016 ± 0.00039	1256.8 ± 1.5	19.29 ± 0.55
303.15 K, x2 = 0.306	1464.89 ± 0.92	1.43866 ± 0.00039	1260.3 ± 1.4	16.23 ± 0.47
308.15 K, x2 = 0.144	1469.61 ± 0.83	1.4394 ± 0.00038	1244.1 ± 1.5	18.04 ± 0.53
308.15 K, x2 = 0.201	1466.68 ± 0.96	1.43875 ± 0.00039	1245.5 ± 1.5	16.53 ± 0.47
308.15 K, x2 = 0.306	1459 ± 0.93	1.43719 ± 0.00039	1249.2 ± 1.4	13.95 ± 0.41
313.15 K, x2 = 0.144	1464.69 ± 0.83	1.43785 ± 0.00039	1232.9 ± 1.5	15.53 ± 0.45
313.15 K, x2 = 0.201	1461.75 ± 0.89	1.43727 ± 0.0004	1234.3 ± 1.5	14.31 ± 0.4
313.15 K, x2 = 0.306	1454.92 ± 0.93	1.4355 ± 0.00039	1238 ± 1.4	12.19 ± 0.35
318.15 K, x2 = 0.144	1459.79 ± 0.83	1.43674 ± 0.00039	1221.8 ± 1.5	13.59 ± 0.38
318.15 K, x2 = 0.201	1456.83 ± 0.9	1.4359 ± 0.00039	1223.2 ± 1.5	12.58 ± 0.35
318.15 K, x2 = 0.306	1449.95 ± 0.9	1.4346 ± 0.00038	1226.8 ± 1.4	10.74 ± 0.31
323.15 K, x2 = 0.144	1454.91 ± 0.83	1.43532 ± 0.00041	1210.9 ± 1.5	12.03 ± 0.33
323.15 K, x2 = 0.201	1451.92 ± 0.9	1.43441 ± 0.00037	1212.2 ± 1.5	11.15 ± 0.31
323.15 K, x2 = 0.306	1444.99 ± 0.91	1.43373 ± 0.00036	1215.7 ± 1.4	9.52 ± 0.27
328.15 K, x2 = 0.144	1450.05 ± 0.83	1.43396 ± 0.00041	1200.1 ± 1.5	10.7 ± 0.29
328.15 K, x2 = 0.201	1447.04 ± 0.9	1.43298 ± 0.00037	1201.3 ± 1.5	9.939 ± 0.27
328.15 K, x2 = 0.306	1440.05 ± 0.91	1.4324 ± 0.00035	1204.7 ± 1.4	8.473 ± 0.24
333.15 K, x2 = 0.144	1445.21 ± 0.83	1.43253 ± 0.00041	1189.4 ± 1.5	9.576 ± 0.26
333.15 K, x2 = 0.201	1442.18 ± 0.91	1.43159 ± 0.00037	1190.6 ± 1.5	8.902 ± 0.24
333.15 K, x2 = 0.306	1435.13 ± 0.91	1.43102 ± 0.00035	1193.9 ± 1.4	7.583 ± 0.22
338.15 K, x2 = 0.144	1440.39 ± 0.83	1.43108 ± 0.00041	1178.7 ± 1.5	8.598 ± 0.23
338.15 K, x2 = 0.201	1437.33 ± 0.91	1.43016 ± 0.00037	1179.9 ± 1.5	7.999 ± 0.22
338.15 K, x2 = 0.306	1430.22 ± 0.92	1.42965 ± 0.00035	1183 ± 1.4	6.83 ± 0.2
343.15 K, x2 = 0.144	1435.58 ± 0.83	1.42964 ± 0.0004	1168.2 ± 1.5	7.76 ± 0.2
343.15 K, x2 = 0.201	1432.49 ± 0.91	1.42874 ± 0.00037	1169.3 ± 1.5	7.221 ± 0.19
343.15 K, x2 = 0.306	1425.33 ± 0.92	1.42828 ± 0.00035	1172.2 ± 1.4	–

CC[n+]1ccccc1.O=S(=O)([N-]S(=O)(=O)C(F)(F)F)C(F)(F)F [1-ethylpyridinium bis[(trifluoromethyl)sulfonyl]imide] + O
Details	mass density, [2] [kg/m3]	refractive index, [1]	speed of sound, [2] [m/s]	viscosity, [2] [mPa·s]
298.15 K, x2 = 0.16	1526.97 ± 1.1	1.43876 ± 0.00038	1270.7 ± 1.5	29.14 ± 0.96
298.15 K, x2 = 0.213	1523.14 ± 1.1	1.43815 ± 0.00038	1272.3 ± 1.5	25.97 ± 0.77
298.15 K, x2 = 0.311	1515.34 ± 1.1	1.43705 ± 0.00037	1276 ± 1.5	22.45 ± 0.65
303.15 K, x2 = 0.16	1521.95 ± 1.1	1.4374 ± 0.00037	1259.7 ± 1.5	24.71 ± 0.86
303.15 K, x2 = 0.213	1518.1 ± 1.1	1.43684 ± 0.00038	1261.3 ± 1.5	22.07 ± 0.67
303.15 K, x2 = 0.311	1510.26 ± 1.1	1.43552 ± 0.00037	1265 ± 1.5	18.74 ± 0.55
308.15 K, x2 = 0.16	1516.97 ± 1.1	1.43587 ± 0.00037	1248.8 ± 1.5	21.3 ± 0.74
308.15 K, x2 = 0.213	1513.09 ± 1.1	1.43539 ± 0.00037	1250.4 ± 1.5	18.95 ± 0.58
308.15 K, x2 = 0.311	1505.19 ± 1.1	1.43461 ± 0.00036	1254 ± 1.5	16.02 ± 0.48
313.15 K, x2 = 0.16	1512 ± 1.1	1.4344 ± 0.00036	1238 ± 1.5	18.53 ± 0.65
313.15 K, x2 = 0.213	1508.09 ± 1.1	1.43415 ± 0.00037	1239.6 ± 1.5	16.4 ± 0.51
313.15 K, x2 = 0.311	1500.14 ± 1.1	1.43318 ± 0.00036	1243.2 ± 1.4	13.8 ± 0.42
318.15 K, x2 = 0.16	1507.04 ± 1.1	1.43296 ± 0.00036	1227.4 ± 1.5	16.21 ± 0.57
318.15 K, x2 = 0.213	1503.11 ± 1.1	1.43277 ± 0.00036	1228.9 ± 1.5	14.34 ± 0.45
318.15 K, x2 = 0.311	1495.11 ± 1.1	1.43193 ± 0.00036	1232.4 ± 1.4	12.1 ± 0.37
323.15 K, x2 = 0.16	1502.11 ± 1.1	1.43144 ± 0.00036	1216.9 ± 1.5	14.16 ± 0.47
323.15 K, x2 = 0.213	1498.16 ± 1.1	1.43144 ± 0.00036	1218.3 ± 1.5	12.71 ± 0.39
323.15 K, x2 = 0.311	1490.1 ± 1.1	1.43082 ± 0.00035	1221.8 ± 1.4	10.71 ± 0.33
328.15 K, x2 = 0.16	1497.2 ± 1.1	1.43003 ± 0.00036	1206.4 ± 1.5	12.5 ± 0.39
328.15 K, x2 = 0.213	1493.22 ± 1.1	1.42994 ± 0.00035	1207.8 ± 1.5	11.35 ± 0.34
328.15 K, x2 = 0.311	1485.1 ± 1.1	1.42955 ± 0.00035	1211.2 ± 1.4	9.547 ± 0.3
333.15 K, x2 = 0.16	1492.3 ± 1.1	1.42859 ± 0.00036	1196.1 ± 1.5	11.14 ± 0.34
333.15 K, x2 = 0.213	1488.3 ± 1.1	1.42857 ± 0.00035	1197.4 ± 1.5	10.18 ± 0.3
333.15 K, x2 = 0.311	1480.12 ± 1.1	1.42824 ± 0.00035	1200.7 ± 1.4	8.555 ± 0.27
338.15 K, x2 = 0.16	1487.43 ± 1.1	1.42719 ± 0.00036	1185.9 ± 1.5	9.991 ± 0.3
338.15 K, x2 = 0.213	1483.4 ± 1.1	1.42725 ± 0.00035	1187.1 ± 1.5	9.164 ± 0.27
338.15 K, x2 = 0.311	1475.16 ± 1.1	1.42694 ± 0.00035	1190.3 ± 1.4	7.709 ± 0.24
343.15 K, x2 = 0.16	1482.56 ± 1.1	1.42569 ± 0.00036	1175.7 ± 1.5	9.019 ± 0.26
343.15 K, x2 = 0.213	1478.5 ± 1.1	1.42589 ± 0.00035	1176.9 ± 1.5	8.282 ± 0.24
343.15 K, x2 = 0.311	1470.22 ± 1.1	1.42551 ± 0.00035	1180 ± 1.4	6.971 ± 0.22
